Results: US20260306644A1, “ANTIBODY RECRUITING MOLECULES FOR THE TREATMENT OF CORONAVIRUS DISEASE-19” (priority 2023, published 2026)
Read-outs that look alike come from different tables or passages of the source. Positions of bridges follow the written chain, without caps; N, C: chain ends. Residues, ends and D or L forms follow the SMILES beside them.

Molecular target: T1, SARS-CoV-2 Spike A (wild-type) (Severe acute respiratory syndrome coronavirus 2, UniProt P0DTC2)
T1 construct: purchased Meso Scale Diagnostics, LLC V-PLEX SARS-CoV-2 Panel 13 (ACE2) Kit / Panel 23 (ACE2) Kit
Assay: MSD ACE2 competition assay (inhibition of Spike binding with ACE2, ECL), A (wild-type)

[1] = IC50 Wild Type, Wild Type Spike
[2] = read-out: IC50, Wild Type, Wild Type

Row | Structure (SMILES) | IC50 [1] [nM] | also measured
1 | CC[C@H](C)[C@H](NC(=O)[C@H](CC(C)C)NC(=O)[C@H](CC(=O)O)NC(=O)[C@H](CO)NC(=O)[C@@H]1CSSC[C@H](NC(=O)[C@@H](NC(=O)[C@H](CCC(=O)O)NC(=O)[C@H](Cc2ccc(O)cc2)NC(=O)[C@@H](NC(=O)[C@H](CCCCN)NC(=O)[C@H](CCC(N)=O)NC(=O)[C@H](CC(C)C)NC(=O)[C@@H](NC(=O)[C@H](Cc2c[nH]c3ccccc23)NC(=O)[C@H](CCC(=O)O)NC(=O)[C@H](CCCCN)NC(=O)[C@@H](N)CC(=O)O)[C@@H](C)CC)[C@@H](C)CC)[C@@H](C)CC)C(=O)N[C@@H](CCCNC(=N)N)C(=O)N[C@@H](CC(C)C)C(=O)N[C@@H](CC(C)C)C(=O)N[C@@H](CC(=O)O)C(=O)N[C@@H](CCC(=O)O)C(=O)N[C@@H](CC(C)C)C(=O)NCC(=O)N[C@@H](Cc2cnc[nH]2)C(=O)N[C@@H](C)C(=O)N[C@@H](CCC(=O)O)C(=O)N[C@@H](C)C(=O)N[C@@H](CO)C(=O)N[C@@H](CCSC)C(=O)N[C@@H](CCCNC(=N)N)C(=O)N1)C(=O)N[C@@H](Cc1ccc(O)cc1)C(=O)N[C@@H](CCC(=O)O)C(=O)N[C@@H](Cc1ccccc1)C(=O)N[C@@H](CCSC)C(=O)N[C@@H](CCCCN)C(=O)N[C@@H](CCCCN)C(=O)NCC(=O)O [Compound 136] (H-DKEWILQKIYEICRLLDELGHAEASMRCSDLIYEFMKKG-OH; disulfide 13-28) | 2.53 | 
2 | CC[C@H](C)[C@H](NC(=O)[C@H](CC(C)C)NC(=O)[C@H](CC(=O)O)NC(=O)[C@H](CO)NC(=O)[C@@H]1CSSC[C@H](NC(=O)[C@@H](NC(=O)[C@H](CCC(=O)O)NC(=O)[C@H](Cc2ccc(O)cc2)NC(=O)[C@@H](NC(=O)[C@H](CCCCN)NC(=O)[C@H](CCC(N)=O)NC(=O)[C@H](CC(C)C)NC(=O)[C@@H](NC(=O)[C@H](Cc2c[nH]c3ccccc23)NC(=O)[C@H](CCC(=O)O)NC(=O)[C@H](CCCCN)NC(=O)[C@H](CC(=O)O)NC(C)=O)[C@@H](C)CC)[C@@H](C)CC)[C@@H](C)CC)C(=O)N[C@@H](CCCNC(=N)N)C(=O)N[C@@H](CC(C)C)C(=O)N[C@@H](CC(C)C)C(=O)N[C@@H](CC(=O)O)C(=O)N[C@@H](CCC(=O)O)C(=O)N[C@@H](CC(C)C)C(=O)NCC(=O)N[C@@H](Cc2cnc[nH]2)C(=O)N[C@@H](C)C(=O)N[C@@H](CCC(=O)O)C(=O)N[C@@H](C)C(=O)N[C@@H](CO)C(=O)N[C@@H](CCSC)C(=O)N[C@@H](CCCNC(=N)N)C(=O)N1)C(=O)N[C@@H](Cc1ccc(O)cc1)C(=O)N[C@@H](CCC(=O)O)C(=O)N[C@@H](Cc1ccccc1)C(=O)N[C@@H](CCSC)C(=O)N[C@@H](CCCCN)C(=O)N[C@@H](CCCCN)C(=O)NCC(=O)O [Compound 137] (Ac-DKEWILQKIYEICRLLDELGHAEASMRCSDLIYEFMKKG-OH; disulfide 13-28) | 2.91 | 
3 | CC[C@H](C)[C@H](NC(=O)[C@H](CC(C)C)NC(=O)[C@H](CC(=O)O)NC(=O)[C@H](CO)NC(=O)[C@@H](NC(=O)[C@H](CCCNC(=N)N)NC(=O)[C@H](CCSC)NC(=O)[C@@H]1CSSC[C@H](NC(=O)[C@H](CC(C)C)NC(=O)[C@H](CCCNC(=N)N)NC(=O)[C@H](CCSC)NC(=O)[C@@H](NC(=O)[C@H](CCC(=O)O)NC(=O)[C@H](Cc2ccc(O)cc2)NC(=O)[C@@H](NC(=O)[C@H](CCCCN)NC(=O)[C@H](CCC(N)=O)NC(=O)[C@H](CC(C)C)NC(=O)[C@@H](NC(=O)[C@H](Cc2c[nH]c3ccccc23)NC(=O)[C@H](CCC(=O)O)NC(=O)[C@H](CCCCN)NC(=O)[C@@H](N)CC(=O)O)[C@@H](C)CC)[C@@H](C)CC)[C@@H](C)CC)C(=O)N[C@@H](CC(=O)O)C(=O)N[C@@H](CCC(=O)O)C(=O)N[C@@H](CC(C)C)C(=O)NCC(=O)N[C@@H](Cc2c[nH]cn2)C(=O)N[C@@H](C)C(=O)N[C@@H](CCC(=O)O)C(=O)N[C@@H](C)C(=O)N1)C(C)C)C(=O)N[C@@H](Cc1ccc(O)cc1)C(=O)N[C@@H](CCC(=O)O)C(=O)N[C@@H](Cc1ccccc1)C(=O)N[C@@H](CCSC)C(=O)N[C@@H](CCCCN)C(=O)N[C@@H](CCCCN)C(=O)NCC(N)=O [Compound 138] (H-DKEWILQKIYEIMRLCDELGHAEACMRVSDLIYEFMKKG-NH2; disulfide 16-25) |  | IC50 (IC50, Wild Type, Wild Type): 12.7 nM
4 | CC[C@H](C)[C@H](NC(C)=O)C(=O)N[C@@H](CC(C)C)C(=O)N[C@@H](CCC(N)=O)C(=O)N[C@@H](CCCCN)C(=O)N[C@H](C(=O)N[C@@H](Cc1ccc(O)cc1)C(=O)N[C@@H](CCC(=O)O)C(=O)N[C@H](C(=O)N[C@@H](CCSC)C(=O)N[C@@H](CCCNC(=N)N)C(=O)N[C@@H](CC(C)C)C(=O)N[C@@H](CC(C)C)C(=O)N[C@@H](CC(=O)O)C(=O)N[C@@H](CCC(=O)O)C(=O)N[C@@H](CC(C)C)C(=O)NCC(=O)N[C@@H](Cc1c[nH]cn1)C(=O)N[C@@H](C)C(=O)N[C@@H](CCC(=O)O)C(=O)N[C@@H](C)C(=O)N[C@@H](CO)C(=O)N[C@@H](CCSC)C(=O)N[C@@H](CCCNC(=N)N)C(=O)N[C@H](C(=O)N[C@@H](CO)C(=O)N[C@@H](CC(=O)O)C(=O)N[C@@H](CC(C)C)C(=O)N[C@H](C(=O)N[C@@H](Cc1ccc(O)cc1)C(=O)N[C@@H](CCC(=O)O)C(=O)N[C@@H](Cc1ccccc1)C(=O)N[C@@H](CCSC)C(=O)N[C@@H](CCCCN)C(=O)N[C@@H](CCCCN)C(=O)NCC(=O)NCCOCCOCCOCCOCCOCCOCCOCCOCCC(=O)NCCOCCOCCOCCOCCOCCOCCOCCOCCC(=O)N[C@@H](CC(=O)O)C(=O)N[C@H]1CSSC[C@@H](C(=O)N[C@H](C(N)=O)[C@@H](C)O)NC(=O)[C@H](Cc2c[nH]c3ccccc23)NC(=O)[C@H](C(C)C)NC(=O)[C@H](CC(C)C)NC(=O)[C@H](CCC(=O)O)NC(=O)CNC(=O)[C@H](CC(C)C)NC(=O)[C@H](Cc2c[nH]cn2)NC(=O)[C@H](Cc2c[nH]c3ccccc23)NC(=O)[C@H](C)NC1=O)[C@@H](C)CC)C(C)C)[C@@H](C)CC)[C@@H](C)CC [Compound 155] | 7.67 | 
5 | CC[C@H](C)[C@H](NC(=O)[C@H](CC(C)C)NC(=O)[C@H](CC(=O)O)NC(=O)[C@H](CO)NC(=O)[C@@H](NC(=O)[C@H](CCCNC(=N)N)NC(=O)[C@H](CCSC)NC(=O)[C@@H]1CSSC[C@H](NC(=O)[C@H](CC(C)C)NC(=O)[C@H](CCCNC(=N)N)NC(=O)[C@H](CCSC)NC(=O)[C@@H](NC(=O)[C@H](CCC(=O)O)NC(=O)[C@H](Cc2ccc(O)cc2)NC(=O)[C@@H](NC(=O)[C@H](CCCCN)NC(=O)[C@H](CCC(N)=O)NC(=O)[C@H](CC(C)C)NC(=O)[C@@H](NC(=O)[C@H](Cc2c[nH]c3ccccc23)NC(=O)[C@H](CCC(=O)O)NC(=O)[C@H](CCCCN)NC(=O)[C@H](CC(=O)O)NC(C)=O)[C@@H](C)CC)[C@@H](C)CC)[C@@H](C)CC)C(=O)N[C@@H](CC(=O)O)C(=O)N[C@@H](CCC(=O)O)C(=O)N[C@@H](CC(C)C)C(=O)NCC(=O)N[C@@H](Cc2c[nH]cn2)C(=O)N[C@@H](C)C(=O)N[C@@H](CCC(=O)O)C(=O)N[C@@H](C)C(=O)N1)C(C)C)C(=O)N[C@@H](Cc1ccc(O)cc1)C(=O)N[C@@H](CCC(=O)O)C(=O)N[C@@H](Cc1ccccc1)C(=O)N[C@@H](CCSC)C(=O)N[C@@H](CCCCN)C(=O)N[C@@H](CCCCN)C(=O)NCC(N)=O [Compound 175] (Ac-DKEWILQKIYEIMRLCDELGHAEACMRVSDLIYEFMKKG-NH2; disulfide 16-25) |  | IC50 [2]: 7.68 nM
6 | CC[C@H](C)[C@H](NC(=O)[C@H](CC(C)C)NC(=O)[C@H](CC(=O)O)NC(=O)[C@H](CO)NC(=O)[C@@H](NC(=O)[C@H](CCCNC(=N)N)NC(=O)[C@H](CCSC)NC(=O)[C@@H]1CSSC[C@H](NC(=O)[C@H](CC(C)C)NC(=O)[C@H](CCCNC(=N)N)NC(=O)[C@H](CCSC)NC(=O)[C@@H](NC(=O)[C@H](CCC(=O)O)NC(=O)[C@H](Cc2ccc(O)cc2)NC(=O)[C@@H](NC(=O)[C@H](CCCCN)NC(=O)[C@H](CCC(N)=O)NC(=O)[C@H](CC(C)C)NC(=O)[C@@H](NC(=O)[C@H](Cc2c[nH]c3ccccc23)NC(=O)[C@H](CCC(=O)O)NC(=O)[C@H](CCCCN)NC(=O)[C@H](CC(=O)O)NC(=O)[C@H](CO)NC(C)=O)[C@@H](C)CC)[C@@H](C)CC)[C@@H](C)CC)C(=O)N[C@@H](CC(=O)O)C(=O)N[C@@H](CCC(=O)O)C(=O)N[C@@H](CC(C)C)C(=O)NCC(=O)N[C@@H](Cc2c[nH]cn2)C(=O)N[C@@H](C)C(=O)N[C@@H](CCC(=O)O)C(=O)N[C@@H](C)C(=O)N1)C(C)C)C(=O)N[C@@H](Cc1ccc(O)cc1)C(=O)N[C@@H](CCC(=O)O)C(=O)N[C@@H](Cc1ccccc1)C(=O)N[C@@H](CCSC)C(=O)N[C@@H](CCCCN)C(=O)N[C@@H](CCCCN)C(=O)NCC(N)=O [Compound 176] |  | IC50 [2]: 5.02 nM
7 | CC[C@H](C)[C@H](NC(=O)[C@H](CC(C)C)NC(=O)[C@H](CC(=O)O)NC(=O)[C@H](CO)NC(=O)[C@@H](NC(=O)[C@H](CCCNC(=N)N)NC(=O)[C@H](CCSC)NC(=O)[C@@H]1CSSC[C@H](NC(=O)[C@H](CC(C)C)NC(=O)[C@H](CCCNC(=N)N)NC(=O)[C@H](CCSC)NC(=O)[C@@H](NC(=O)[C@H](CCC(=O)O)NC(=O)[C@H](Cc2ccc(O)cc2)NC(=O)[C@@H](NC(=O)[C@H](CCCCN)NC(=O)[C@@H](N)CCC(N)=O)[C@@H](C)CC)[C@@H](C)CC)C(=O)N[C@@H](CC(=O)O)C(=O)N[C@@H](CCC(=O)O)C(=O)N[C@@H](CC(C)C)C(=O)NCC(=O)N[C@@H](Cc2c[nH]cn2)C(=O)N[C@@H](C)C(=O)N[C@@H](CCC(=O)O)C(=O)N[C@@H](C)C(=O)N1)C(C)C)C(=O)N[C@@H](Cc1ccc(O)cc1)C(=O)N[C@@H](CCC(=O)O)C(=O)N[C@@H](Cc1ccccc1)C(=O)N[C@@H](CCSC)C(=O)N[C@@H](CCCCN)C(=O)N[C@@H](CCCCN)C(=O)NCC(N)=O [Compound 177] (H-QKIYEIMRLCDELGHAEACMRVSDLIYEFMKKG-NH2; disulfide 10-19) | > 10000 | 
